The numbers were not newly measured in US9358209B2, “Econazole composition and methods of treatment therewith” (Exeltis USA Dermatology, Inc., priority 2010, dated 2016), which cites them from elsewhere.

For data set [1] the following is noted: Liao et al., Yao Xue Xue Bao 28(1):22-7 (1993).
For a further data set, the system named is dermatophytes and yeasts. The following applies: most strains of E. floccosum, M. audouinii, M. canis, M. gypseum, T. mentagrophytes, T. rubrum, T. tonsurans, C. albicans, M. furfur.

Regarding `Clc1ccc(CO[C@@H](Cn2ccnc2)c2ccc(Cl)cc2Cl)cc1` [(R)-(−)-econazole], in data set [1], the “antifungal activity relative to other stereoisomer” value was “greater antifungal activity”. For the molecule `Clc1ccc(COC(Cn2ccnc2)c2ccc(Cl)cc2Cl)cc1` (centres unmarked) [Econazole nitrate], the “activity against dermatophytes and yeasts” value with dermatophytes and yeasts is on record as “has shown activity”.
